Data published in patent US20260042762A1 (Kymera Therapeutics, Inc., priority 2018, published 2026).
Where a name gives a salt, the structure may show the parent alone.

Molecular target: T1, MerTK (Homo sapiens, UniProt Q12866)
T1 construct: endogenous in cells; host or cells: Jurkat cells
T1 sequence (Q12866 21-999): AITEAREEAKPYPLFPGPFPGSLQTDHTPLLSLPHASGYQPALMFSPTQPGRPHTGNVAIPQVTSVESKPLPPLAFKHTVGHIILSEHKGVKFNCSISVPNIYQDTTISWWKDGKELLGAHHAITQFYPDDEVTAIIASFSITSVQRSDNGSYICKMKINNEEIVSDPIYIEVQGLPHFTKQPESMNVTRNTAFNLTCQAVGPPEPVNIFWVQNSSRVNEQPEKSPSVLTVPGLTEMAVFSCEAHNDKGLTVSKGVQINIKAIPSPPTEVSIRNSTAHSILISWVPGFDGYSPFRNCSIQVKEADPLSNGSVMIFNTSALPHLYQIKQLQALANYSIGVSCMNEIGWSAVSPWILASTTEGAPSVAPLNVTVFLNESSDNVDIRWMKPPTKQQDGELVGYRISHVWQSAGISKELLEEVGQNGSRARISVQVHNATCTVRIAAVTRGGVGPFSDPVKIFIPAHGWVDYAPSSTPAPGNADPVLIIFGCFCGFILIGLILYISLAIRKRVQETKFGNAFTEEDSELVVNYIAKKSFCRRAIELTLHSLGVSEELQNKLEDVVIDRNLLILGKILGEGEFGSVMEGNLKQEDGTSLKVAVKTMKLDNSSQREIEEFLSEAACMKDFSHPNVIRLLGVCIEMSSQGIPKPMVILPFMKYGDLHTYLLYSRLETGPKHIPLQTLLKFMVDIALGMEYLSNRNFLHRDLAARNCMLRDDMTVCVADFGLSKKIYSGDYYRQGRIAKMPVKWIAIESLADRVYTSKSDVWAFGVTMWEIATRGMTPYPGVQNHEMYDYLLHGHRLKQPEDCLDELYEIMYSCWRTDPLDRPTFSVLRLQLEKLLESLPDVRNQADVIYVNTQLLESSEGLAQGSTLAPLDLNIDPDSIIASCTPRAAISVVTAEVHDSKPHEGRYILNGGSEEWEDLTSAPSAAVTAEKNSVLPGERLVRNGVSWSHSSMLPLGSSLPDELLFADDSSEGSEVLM
Test: MerTk degradation in Jurkat cells (Western blot)
Assay type: cell-based
Details: Jurkat, 4 h, 0.001-1 μM, 4 hour-incubation at 37° C., read-out: Jurkat Max % MerTK Degradation
Procedure: Compounds were reconstituted in DMSO to make 10 mM stock solutions. […] Cells were seeded into 6-well plates with about 5×10^6 cells per well. 2 μL of diluted compounds were added to cells to the final concentration of 0.001-1 μM. After a 4 hour-incubation at 37° C., cells were collected into 2 mL Eppendorf tubes and centrifuged at 1,000 rpm for 5 min. The cell pellets were washed with DPBS (1×) once and resuspended in 60 μL RIPA lysis buffer with Halt Protease and Phophatase Inhibitor Cocktail. The cells were lysed on ice for 10 min, then centrifuged at 14,000 rpm for 10 min at 4° C. and the supernatants were collected for western blots.
The protein concentration of cell lysates was quantified with Pierce™ BCA Protein Assay Kit. […] BCA working reagents were prepared by mixing BCA reagent A with reagent B in 50: 1 ratio. 200 μL of the BCA working reagents were added to 25 μL of BCA standard or cell lysates in microplate, and mixed thoroughly on a plate shaker for 30 seconds. After incubation at 37° C. for 30 min, the absorbance of samples at 562 nm were measured with EnVision Plate Reader.
Protein lysates were prepared in NuPAGE™ LDS sample buffer and NuPAGE™ sample reducing agent, and incubated at 95° C. for 5 min. […] The proteins were transferred to low fluorescence PVDF membranes using the Trans-Blot Turbo Transfer System. Membranes were then blocked in Odyssey blocking buffer at RT for 1 h followed by primary incubation at 4° C. overnight. The primary antibodies were MerTK rabbit monoclonal antibody and actin mouse monoclonal antibody. Membranes were washed three times with TBST (1×), and then incubated with IR Dye 800 CW Goat anti-rabbit and IR Dye 700 CW Goat anti-mouse secondary antibodies in 1:10,000 dilution at RT for 1 h. The Western blot images were obtained using Odyssey Imaging System.

| SMILES | Dmax |
| --- | --- |
| Cn1c(=O)n([C@H]2CCC(=O)NC2=O)c2ccc(CCCOCCCN3CCN(Cc4ccc(-c5cn([C@H]6CC[C@H](O)CC6)c6nc(NCCC(F)F)ncc56)cc4)CC3)cc21 [I-115, 3-[5-[3-(3-[4-[(4-[2-[(3,3-difluoropropyl)amino]-7-[(1r,4r)-4-hydroxycyclohexy1]-7H-pyrrolo[2,3-d]pyrimidin-5-yl]phenyl)methyl]piperazin-1-yl]propoxy)propyl]-3-methyl-2-oxo-2,3-dihydro-1H-1,3-benzodiazol-1-yl]piperidine-2,6-dione; formic acid] | > 50% |
| Cn1c(=O)n([C@H]2CCC(=O)NC2=O)c2ccc(CCOCCN3CCN(Cc4cn([C@H]5CC[C@H](O)CC5)c5nc(NCCC(F)(F)F)ncc45)CC3)cc21 [I-147, 3-[3-methyl-2-oxo-5-(2-[2-[4-([7-[(1r,4r)-4-hydroxycyclohexyl]-2-[(3,3,3-trifluoropropyl)amino]pyrrolo[2,3-d]pyrimidin-5-y1]methyl)piperazin-1-yl]ethoxy]ethyl)-1,3-benzodiazol-1-yl]piperidine-2,6-dione] | < 20% |
| CCCCNc1ncc2c(-c3ccc(S(=O)(=O)N4CCN(CCOCCOCCOCCOCCCc5ccc6c(c5)n(C)c(=O)n6[C@H]5CCC(=O)N(C)C5=O)CC4)cc3)cn([C@H]3CC[C@H](O)CC3)c2n1 [I-60, 3-[5-[1-(4-[4-[2-(butylamino)-7-[trans-4-hydroxycyclohexyl]-7H-pyrrolo[2,3-d]pyrimidin-5-yl]benzenesulfonyl]piperazin-1-yl)-3,6,9,12-tetraoxapentadecan-15-y1]-3-methyl-2-oxo-2,3-dihydro-1H-1,3-benzodiazol-1-yl]-1-methylpiperidine-2,6-dione; formic acid] | < 20% |
| CCCCNc1ncc2c(n1)n([C@H]1CC[C@H](O)CC1)cc2[C@H]1CC[C@H](CN2CCN(CCOCCOCCOCCOCCCc3ccc4c(c3)n(C)c(=O)n4[C@H]3CCC(=O)NC3=O)CC2)CC1 [I-90, 3-[3-methyl-2-oxo-5-[1-(4-[[(1r,4r)-4-[2-(butylamino)-7-[trans-4-hydroxycyclohexy1]-7H-pyrrolo[2,3-d]pyrimidin-5-yl]cyclohexyl]methyl]piperazin-1-yl)-3,6,9,12-tetraoxapentadecan-15-y1]-2,3-dihydro-1H-1,3-benzodiazol-1-yl]piperidine-2,6-dione] | > 50% |
| CCC[C@@H](C)Nc1ncc2c(-c3ccc(CN4CCN(CCCO[C@H]5CCN(Cc6ccc7c(c6)n(C)c(=O)n7C6CCC(=O)NC6=O)C5)CC4)cc3)cn([C@H]3CC[C@H](O)CC3)c2n1 (stereo partly shown) [I-176] | > 50% |
| CCCCNc1ncc2c(-c3ccc(CN4CCN(CCCc5ccc6c(c5)n(C)c(=O)n6[C@H]5CCC(=O)NC5=O)CC4)cc3)cn([C@H]3CC[C@H](O)CC3)c2n1 [I-44, 3-(5-[3-[4-([4-[2-(Butylamino)-7-[trans-4-hydroxycyclohexyl]-7H-pyrrolo[2,3-d]pyrimidin-5-yl]phenyl]methyl)piperazin-1-yl]propyl]-3-methyl-2-oxo-2,3-dihydro-1H-1,3-benzodiazol-1-y1)piperidine-2,6-dione; formic acid] | < 20% |
| CCCCNc1ncc2c(-c3ccc(S(=O)(=O)N4CCN(C(=O)COCCOCCOCCOCCNc5cccc6c5C(=O)N(C5CCC(=O)NC5=O)C6=O)CC4)cc3)nn([C@H]3CC[C@H](O)CC3)c2n1 (stereo partly drawn) [I-32, 4-((14-(4-((4-(6-(butylamino)-1-(trans-4-hydroxycyclohexyl)-1H-pyrazolo[3,4-d]pyrimidin-3-yl)phenyl)sulfonyl)piperazin-1-yl)-14-oxo-3,6,9,12-tetraoxatetradecyl)amino)-2-(2,6-dioxopiperidin-3-yl)isoindoline-1,3-dione] | > 50% |
| Cn1c(=O)n([C@H]2CCC(=O)NC2=O)c2ccc(CCCOCCOCCOCCNCc3ccc(-c4cn([C@H]5CC[C@H](O)CC5)c5nc(NCCC(F)(F)F)ncc45)cc3)cc21 [I-47, 3-[3-methyl-2-oxo-5-[1-(4-[7-[trans-4-hydroxycyclohexy1]-2-[(3,3,3-trifluoropropyl)amino]-7H-pyrrolo[2,3-d]pyrimidin-5-yl]phenyl)-5,8,11-trioxa-2-azatetradecan-14-y1]-2,3-dihydro-1H-1,3-benzodiazol-1-yl]piperidine-2,6-dione] | > 50% |
| Cn1c(=O)n([C@H]2CCC(=O)NC2=O)c2ccc(Cn3cc(CN4CCN(Cc5ccc(-c6cn([C@H]7CC[C@H](O)CC7)c7nc(NCCC(F)(F)F)ncc67)cc5)CC4)nn3)cc21 [I-113, 3-(3-Methyl-2-oxo-5-[[4-([4-[(4-[7-[trans-4-hydroxycyclohexyl]-2-[(3,3,3-trifluoropropyl)amino]-7H-pyrrolo[2,3-d]pyrimidin-5-yl]phenyl)methyl]piperazin-1-yl]methyl)-1H-1,2,3-triazol-1-yl]methyl]-2,3-dihydro-1H-1,3-benzodiazol-1-yl)piperidine-2,6-dione] | > 50% |
| Cn1c(=O)n([C@H]2CCC(=O)NC2=O)c2ccc(CCCOCCCOCCN3CCN(Cc4ccc(-c5cn([C@H]6CC[C@H](O)CC6)c6nc(NCCC7CC7)ncc56)cc4)CC3)cc21 [I-70, 3-(5-[3-[3-(2-[4-[(4-[2-[(2-cyclopropylethyl)amino]-7-[trans-4-hydroxycyclohexyl]-7H-pyrrolo[2,3-d]pyrimidin-5-yl]phenyl)methyl]piperazin-1-yl]ethoxy)propoxy]propy1]-3-methyl-2-oxo-2,3-dihydro-1H-1,3-benzodiazol-1-y1)piperidine-2,6-dione] | > 50% |
| Cn1c(=O)n([C@H]2CCC(=O)NC2=O)c2ccc(C#CCOCCOCCN3CCN(Cc4ccc(-c5cn([C@H]6CC[C@H](O)CC6)c6nc(NCCC(F)(F)F)ncc56)cc4)CC3)cc21 [I-82, 3-(3-methyl-2-oxo-5-[3-[2-(2-[4-[(4-[7-[trans-4-hydroxycyclohexy1]-2-[(3,3,3-trifluoropropyl)amino]-7H-pyrrolo[2,3-d]pyrimidin-5-yl]phenyl)methyl]piperazin-1-yl]ethoxy)ethoxy]prop-1-yn-1-yl]-2,3-dihydro-1H-1,3-benzodiazol-1-yl)piperidine-2,6-dione] | > 50% |
| Cc1ncsc1-c1ccc(CNC(=O)[C@@H]2C[C@@H](O)CN2C(=O)[C@@H](NCCNCCCCCN2CCN(Cc3ccc(-c4cn([C@H]5CC[C@H](O)CC5)c5nc(NCCC(F)(F)F)ncc45)cc3)CC2)C(C)(C)C)cc1 [I-68, (2S,4R)-1-[(2S)-3,3-dimethyl-2-([2-[(5-[4-[(4-[7-[trans-4-hydroxycyclohexyl]-2-[(3,3,3-trifluoropropyl)amino]-7H-pyrrolo[2,3-d]pyrimidin-5yl]phenyl)methyl]piperazin-1-yl]pentyl)amino]ethyl]amino)butanoyl]-4-hydroxy-N-[[4-(4-methyl-1,3-thiazol-5-yl)phenyl]methyl]pyrrolidine-2-carboxamide dihydrochloride] | < 20% |
| Cn1c(=O)n([C@H]2CCC(=O)NC2=O)c2cccc(CCCOCCOCCN3CCN(Cc4ccc(-c5cn([C@H]6CC[C@H](O)CC6)c6nc(NCCC(F)(F)F)ncc56)cc4)CC3)c21 [I-135, 3-(3-methyl-2-oxo-4-[3-[2-(2-[4-[(4-[7-[trans-4-hydroxycyclohexyl]-2-[(3,3,3-trifluoropropyl)amino]pyrrolo[2,3-d]pyrimidin-5-yl]phenyl)methyl]piperazin-1-yl]ethoxy)ethoxy]propyl]-1,3-benzodiazol-1-y1)piperidine-2,6-dione] | > 50% |
